# Reference: patent US5618675A, “Methods and compositions for detecting lipopolysaccharides using CAP18 fragments” (Panorama Research, Inc., dated 1997)
# Several values for one entry are separate records, joined by “and”; a condition that tells them apart may be missing. Identical values can stand only once.
# B1: CAP-37: another cationic peptide CAP37 (azurocidin) (Morgan et al. 1991) (protein, UniProt P20160 27-248, looked up)
# Azurocidin: IVGGRKARPRQFPFLASIQNQGRHFCGGALIHARFVMTAASCFQSQNPGVSTVVLGAYDLRRRERQSRQTFSISSMSENGYDPQQNLNDLMLLQLDREANLTSSVTILPLPLQNATVEAGTRCQVAGWGSQRSGGRLSRFPRFVNVTVTPEDQCRPNNVCTGVLTRRGGICNGDGGTPLVCEGLAHGVASFSLGPCGRGPDFFTRVALFRDWIDGVLNNPGP
# Assays:
# [1] = system: RAW 264.7 cells; format: cell-based, murine; conditions: for Inhibition of LPS-induced RNI-IC50: LPS-induced (2.5 ng/ml LPS in FIG. 6B)
# Description: From the sequence of the CAP18 cDNA, it was apparent that the putative N-terminal peptide of CAP18 was in fact an internal fragment of the CAP18 protein. We therefore tried to reconfirm the original protein sequence. Neutrophil-derived heparin bound cationic proteins were prepared as described above and applied to a C18 reverse phase HPLC (FIG. 1). We sequenced the major peaks. Peaks at fractions 14.5 and 15.2 correspond to defensins MCP1 and MCP2 (Territo et al. (1989) J. Clin. Invest. 84:2017-2019), respectively. Fraction 25.8 is macrophage related protein 14 (MRP14) (Odink et al. (1987) Nature 330:80-82). The fraction at 20.3 minutes corresponds to a fragment of CAP18 of approximately 4-5 kD. […] The murine macrophage cell line RAW 264.7 (obtained from ATCC) and thioglycolate-elicited murine peritoneal exudate cells are used to produce RNI. Cells are cultured at 1×10^6 /ml. in RPMI-1640 +2.5% FCS in 24 well plates in the presence or absence of different concentrations of LPS or murine rlFNγ. After 24 hr. incubation at 37° C. the cell free supernatant is collected and tested for the presence of RNI. Accumulation of nitrite in the medium is measured by a colorimetric assay based on the Griess reaction (Green et al. (1982) Anal. Biochem. 126:11) using sodium nitrite as standards. Sample (50 μl) is mixed with 50 μl of Griess reagent (1% sulfanilamide, 0.1% naphthalene diamine dihydrochloride, 2.5% H3 PO4) and after 10 min. at room temperature absorbance is read at 570 nm.
# [2] = system: Salmonella minnesota ReLPS sensitized sheep erythrocytes; test: LPS hemagglutination assay (MAC); format: binding
# Description: For hemagglutination assays, erythrocytes were sensitized with LPS as follows. One ml of 1% erythrocyte suspension (human 0 type, C3H/HeN mouse or sheep) was mixed with 0.2 ml of LPS solution and incubated at 37° C. for 30 min, followed by washing with phosphate buffered saline (PBS), and then the concentration of suspension was adjusted to 1.0%. In the case of S-LPS, the solution was heated at 100° C. for 1 hour before sensitization of erythrocytes. […] Activity of CAP was expressed as a minimum agglutinating concentration (MAC) of CAP. According to the method of Kirikae et al. (1986) Microbiol. Immunol. 30:269-274, 50 μl of 2-fold serial dilution of Re-LPS was added to 50 μl of 1.0% rabbit erythrocyte suspension, and incubated at 37° C. for 3, hour. Minimum agglutinating concentration of Re-LPS was expressed as 1 HA unit.
# [3] = system: thioglycolate-stimulated murine peritoneal macrophages; test: LPS-induced tissue factor generation by macrophages; format: cell-based; conditions: peptide 1 μg/ml; 6 hr; FIG. 12
# Description: […] Cells were cultured for 6 hours prior to assay of tissue factor by clotting assay.
# […] Production of tissue factor after 6 hr. was measured by clotting assay. […] In the absence of LPS no tissue factor is synthesized by these cells.
# [4] = system: Salmonella minnesota Re; test: Antibacterial CFU assay; conditions: FIG. 6C
# [5] = system: Salmonella typhimurium; test: Antibacterial CFU assay; conditions: for anti-bacterial activity (CFU), words: FIG. 6D; for effect on CFU at high concentrations alone and in various combinations: FIG. 6F
# [6] = target: prothrombin (factor II)
# [7] = target: purified human factor Xa (human, UniProt P00742); test: cell-based or functional assay
# [8] = target: T1, purified human factor X (human, UniProt P00742); test: cell-based or functional assay
# [9] = target: T1, purified human factor X; test: cell-based or functional assay; remark: listed apart in the source
# [10] = system: cells; test: Effect of CAP-37 on LPS-induced tissue factor generation; format: cell-based; conditions: for Tissue factor, figure in parentheses (relative to control = 1.0) / Tissue Factor / Activity: CAP-37 15 HA; for Activity: LPS alone = 100
# Description: Table 6 presents a comparison of the effect of RNIP, CAP18, and defensins HP-1 and HP-2 (Territo et al. (1989) J. Clin. Invest. 84:2017-2019) on LPS-induced tissue factor generation. Tissue factor assays were performed as follows. Mouse peritoneal cells were elicted with an intraperitoneal injection of thioglycolate medium and harvested 5-days later by irrigation with pyrogen-free saline. The cells were washed with RPMI 1640 medium, counted and resuspended at a concentration of 1.5-2.0×10^6 /ml in serum-free RPMI medium containing glutamine (0.29 mg/ml), penicillin (50 units/ml) and streptomycin (50/ml). Adherent cells were prepared by incubating 10 ml of a cell suspension (in RPMI 1640 media in sterile culture bottle (Nunclon, 50 ml, Inter Med) for 60 min. at 37° C. in a 5% CO2 atmosphere. The plastic adherent cells were recovered by scraping of the bottle with a sterile rubber policeman. The adherent cells were then washed twice with RPMI media, resuspended in serum-free medium (1×10^6 /ml) in culture tube (Nunc cryotube, Inter Med), and stimulated with graded doses of LPS for 6 hr. at 37° C. in a 5% CO2. The cell suspension was centrifuged and cell pellet was frozen at -80° C. until clotting assays were run.
# Veronal buffered saline (VBS) was added to the cell pellet, lysed by 3 cycles of freeze/thaw and sonicated for 10 sec with a hand-held sonicator microbe (Handy Sonic, model UR-20P, Tomy Seiko LTD, Tokyo). Tissue factor activity was tested in modified unactivated partial thromboplastin time (7). One tenth ml of cell lysate (1×10^6 /ml) was preincubated with mouse plasma at 37° C. for 3 min. Then 0.1 ml of 25 mM-CaCl2 which contains phospholipid was added to the mixture and clotting time was measured using a fibrometer (Bio Quest Division, Becton Dickinson, Cokeysville, USA). A standard curve obtained from serial two-fold dilutions of rabbit brain thromboplastic (Simplastin, Ono Pharmaceutical Co.) was used to transpose tissue factor activity into arbitrary tissue factor units (1 μg/ml) suspension of rabbit brain was assigned a value of 1,000 units).
# .dagger. LPS was incubated with CAP37 at 37° C. for 2 hours, and
# the mixture was added to cells, then cultured for 6 hours.
molecule,measurement,setting,value
"32-1: synthetic rabbit RNIP-derived fragment, amino acids 135-143 of SEQ ID NO:4 (GLRKRLRKF)",Inhibition of LPS-induced RNI-IC50,[1],> 2 µg/mL
same,Hemagglutination MAC (minimum agglutinating concentration),[2],> 125 µg/mL
same,inhibition of LPS induced tissue factor,[3],fail to inhibit
same,"anti-bacterial activity (CFU), words",[4],not active
same,"anti-bacterial activity (CFU), words",[5],not active
same,effect on CFU at high concentrations alone and in various combinations,[5],No effect
same,effect of pretreatment with peptide 32-1 on bacterial killing by peptide 197,[5]; FIG. 6G,no inhibition or augmentation
polymyxin B [reference compound],inhibition of LPS-induced RNI production,"[1]; LPS 5ng/ml, FIG. 4",inhibition
"34-1: synthetic rabbit RNIP-derived fragment, amino acids 140-166 of SEQ ID NO:4 (LRKFRNKIKEKLKKIGQKIQGLLPKLA)",Inhibition of LPS-induced RNI-IC50,[1],> 2 µg/mL
same,Hemagglutination MAC (minimum agglutinating concentration),[2],> 125 µg/mL
"54-2: synthetic rabbit RNIP-derived fragment, amino acids 139-171 of SEQ ID NO:4 (RLRKFRNKIKEKLKKIGQKIQGLLPKLAPRTDY)",Inhibition of LPS-induced RNI-IC50,[1],> 2 µg/mL
same,Hemagglutination MAC (minimum agglutinating concentration),[2],> 125 µg/mL
"54-1: synthetic rabbit RNIP-derived fragment, amino acids 139-170 of SEQ ID NO:4 (RLRKFRNKIKEKLKKIGQKIQGLLPKLAPRTD)",Inhibition of LPS-induced RNI-IC50,[1],> 2 µg/mL
same,Hemagglutination MAC (minimum agglutinating concentration),[2],> 125 µg/mL
"187: synthetic rabbit RNIP-derived fragment, amino acids 151-171 of SEQ ID NO:4 (LKKIGQKIQGLLPKLAPRTDY) [compound 187]",activity in hemagglutination and inhibition of LPS-induced RNI,[1],inactive
same,Inhibition of LPS-induced RNI-IC50,[1],> 10 µg/mL
same,Hemagglutination MAC (minimum agglutinating concentration),[2],> 125 µg/mL
"52-3: synthetic rabbit RNIP-derived fragment, amino acids 132-171 of SEQ ID NO:4 as printed (EPTGLRKRLRKFRNKIKEKLKKIGQKIQGLLPKLAPRTDY)",Inhibition of LPS-induced RNI-IC50,[1],> 2 µg/mL
same,Hemagglutination MAC (minimum agglutinating concentration),[2],> 125 µg/mL
"52-1: synthetic rabbit RNIP-derived fragment, amino acids 143-169 of SEQ ID NO:4 (FRNKIKEKLKKIGQKIQGLLPKLAPRT)",Inhibition of LPS-induced RNI-IC50,[1],> 2 µg/mL
same,Hemagglutination MAC (minimum agglutinating concentration),[2],> 125 µg/mL
"21-1: synthetic rabbit RNIP-derived fragment, amino acids 135-151 of SEQ ID NO:4 (GLRKRLRKFRNKIKEKL)",Inhibition of LPS-induced RNI-IC50,[1],> 2 µg/mL
same,Hemagglutination MAC (minimum agglutinating concentration),[2],> 125 µg/mL
"50-2: synthetic rabbit RNIP-derived fragment, amino acids 147-171 of SEQ ID NO:4 (same range printed as 50-1) (IKEKLKKIGQKIQGLLPKLAPRTDY)",Inhibition of LPS-induced RNI-IC50,[1],0.3 µg/mL
same,Hemagglutination MAC (minimum agglutinating concentration),[2],> 125 µg/mL
same,inhibition of LPS induced tissue factor,[3],fail to inhibit
same,"anti-bacterial activity (CFU), words",[4],not active
same,"anti-bacterial activity (CFU), words",[5],not active
same,effect on CFU at high concentrations alone and in various combinations,[5],No effect
"52-2: synthetic rabbit RNIP-derived fragment, amino acids 143-170 of SEQ ID NO:4 (FRNKIKEKLKKIGQKIQGLLPKLAPRTD)",Inhibition of LPS-induced RNI-IC50,[1],> 2 µg/mL
same,Hemagglutination MAC (minimum agglutinating concentration),[2],> 125 µg/mL
"50-1: synthetic rabbit RNIP-derived fragment, amino acids 147-171 of SEQ ID NO:4 (IKEKLKKIGQKIQGLLPKLAPRTDY)",Inhibition of LPS-induced RNI-IC50,[1],0.3 µg/mL
same,Hemagglutination MAC (minimum agglutinating concentration),[2],> 125 µg/mL
GLRKRLRKFRNKIKEKLKKIGQKIQGLLPKLAPRTDY,"IC50, prothrombin activation by factor Xa (synthetic substrate)",[6],50 nM
same,"IC50, Xa-induced clotting",[7],2.7 µg/ml and 0.5 µM
same,"IC50, Russell Viper Venom induced clotting",[8],0.7 µg/ml and 0.1 µM
same,"IC50, RVV activation of factor X to Xa (synthetic substrate)",[9],6.7 µg/ml and 1.1 µM
GLRKRLRKFRNKIKEKLKKIGQKIQGLLPKLA [synthetic rabbit RNIP-derived peptide 36-1],"IC50, prothrombin activation by factor Xa (synthetic substrate)",[6],< 30 nM
same,"IC50, Xa-induced clotting",[7],2.2 µg/ml and 0.4 µM
same,"IC50, Russell Viper Venom induced clotting",[8],0.9 µg/ml and 0.2 µM
same,"IC50, RVV activation of factor X to Xa (synthetic substrate)",[9],10 µg/ml and 1.9 µM
same,"IC50, factor X activation by tissue factor and factor VII (synthetic substrate)",[9],100 nM
B1,inhibition of tissue factor generation,[10],unable to inhibit
same,"Tissue factor, figure in parentheses (relative to control = 1.0)",[10]; LPS 0.1 μg/ml,2.3
same,Tissue Factor,"[10]; LPS 0.1 μg/ml, LPS alone 412 ± 30",383 ± 307 units/1 × 10^5 cells
same,Activity,[10]; LPS 0.1 μg/ml,93.0
same,"Tissue factor, figure in parentheses (relative to control = 1.0)",[10]; LPS 1.0 μg/ml,3.9
same,Tissue Factor,"[10]; LPS 1.0 μg/ml, LPS alone 692 ± 27",648 ± 343 units/1 × 10^5 cells
same,Activity,[10]; LPS 1.0 μg/ml,93.6
same,"Tissue factor, figure in parentheses (relative to control = 1.0)",[10]; no LPS,1.1
same,Tissue Factor,"[10]; no LPS, control 168 ± 95",183 ± 67 units/1 × 10^5 cells
